This note sets out measurements from article PMC9977398, “Next-generation membrane-active glycopeptide antibiotics that also inhibit bacterial cell division” (Chemical Science, 2023).

≈ marks a conversion by molar mass, not a printed value. Where two headings read alike, the source gives them in different places.

Format in all cases: cell-based
The subject of test [1] is VRE 51559 (vancomycin-resistant E. faecium, VanA phenotype, ATCC 51559). Kind of test: MIC determination, micro-dilution broth. The method, then:
(§1) The increase in the carbon content of substituted moieties from six (1) to seven (2 and 3) to ten (5) to twelve (4), increased activity. […]
(§2) Test compound was assayed in a micro -dilution broth format as per the CLSI guideline. The bacterial freeze dried stock samples were stored at -80 °C. About 5 μL of these stocks were added to 3 mL of the respective broth and the culture was grown for 6 h at 37°C with prior to the experiments. This 6 h grown culture was diluted to give effective cell concentration of 10 5 CFU/mL which was then used for determining MIC. Compounds were serially diluted 2 -fold, in sterile millipore water and 50 μL of these serial dilutions were added to the wells of 96 well plate followed by the addition of about 150 μL of bacterial solution. The plates were then incubated for 18-24 h at 37 °C. The O.D. value at 600 nm was recorded using TECAN (Infinite series, M200 pro) Plate Reade r. Each concentration had triplicate values and the whole experiment was done at least twice and the MIC value was determined by taking the average of triplicate O. D. values for each concentration and plotting it against concentration. The data was then subjected to sigmoidal fitting. From the curve the MIC value was determined, as the point where the O. D. was similar to that of control having no bacteria.

In test [2] the test system is VRE 51575 (vancomycin-resistant E. faecalis, VanB phenotype, ATCC 51575). Kind of test: MIC determination, micro-dilution broth. The procedure:
as §1, §2

For test [3], the system named is VRSA 1 (vancomycin-resistant S. aureus). The experiment in a line: MIC determination, micro-dilution broth. The note with it: Staphylococcus aureus, read-out: Minimum inhibitory concentration, VRSA 1. The procedure: as §1, §2
The test system of test [4] is VRSA 12 (vancomycin-resistant S. aureus). Kind of test: MIC determination, micro-dilution broth. The note with it: Staphylococcus aureus, read-out: Minimum inhibitory concentration, VRSA 12. The method, then:
as §1, §2
For orientation: Broth dilution looks for growth in wells or tubes with falling amounts of substance.

The test system of test [5] is VRSA 4 (vancomycin-resistant S. aureus). The experiment in a line: MIC determination, micro-dilution broth. The following applies: Staphylococcus aureus, read-out: Minimum inhibitory concentration, VRSA 4. The procedure:
as §1, §2

The subject of test [6] is GFP-FtsI expressing E. coli. The experiment in a line: GFP-FtsI localization and morphology. The following applies: for localization of GFP-FtsI: vancomycin 34 μM, VanQAmC10 10 and 15 μM. The procedure: FtsI or PBP-3 is the only transpeptidase required for bacterial cell division and localizes to the septal ring.[37] It regulates the degree of cross-linking and coordinates the division process. GFP-tagged FtsI producing E. coli cells were treated with vancomycin (at 34 μM) and VanQAmC10 (at 10 μM and 15 μM; Fig. 5C) and then examined under the microscope. […] Upon treatment with 10 μM of VanQAmC10, larger phenotypes of variable sizes are observed with shape defects. Some cells appear filamentous like in the case of cephalexin. The GFP-FtsI protein appears as green fluorescent spots delocalized across the cell in 60% of the cells visualized. At a higher concentration of 15 μM, bulkier cells with more distorted shapes than those at 10 μM were observed (Fig. S5 ^†). […]
resuspended in prewarmed BMM media. 1:1 BAC light dye was then added to the bacterial suspension and incubated for 5 minutes. The fluorescence in the GFP and Texas red channels was then observed under the microscope. The experiments were performed three times independently and the images are representative of results from three independent experiments.
B. subtilis 1981 GFP-MinD was cultured overnight in BMM.8 Cells were then inoculated in xylose containing BMM instead of glucose to an OD500 of 0.1 to induce expression of the GFP-MinD fusion protein. Upon reaching an OD500 of 0.35, the cells were treated with test compounds at the PEC (vancomycin, VanQAmC10, VanQbiph) and 0.75 μg/mL (nisin) for 15 min. 0.5 μl of nonfixed, non-immobilized samples of the culture were imaged immediately in fluorescent mode (Olympus microscope with a U-LH100HGAPO burner and a U-RFL-T power supply). The experiments were performed three times independently and the images are representative of results from three independent experiments.
GFP-FtsI and GFP-FtsZ localization in E. coli […]
About 6 μl of sample was immobilized on 1% agarose pad . DIC and fluorescence images were obtained at different time intervals using Nikon Eclipse Ti Microscope equipped with Nikon DS-U3 camera through Plan Apo 100×/1.40 oil objective. […]

As for `CN[C@H](CC(C)C)C(=O)N[C@H]1C(=O)N[C@@H](CC(N)=O)C(=O)N[C@H]2C(=O)N[C@H]3C(=O)N[C@H](C(=O)N[C@H](C(=O)O)c4cc(O)cc(O)c4-c4cc3ccc4O)[C@H](O)c3ccc(c(Cl)c3)Oc3cc2cc(c3O[C@@H]2O[C@H](CO)[C@@H](O)[C@H](O)[C@H]2O[C@H]2C[C@](C)(N)[C@H](O)[C@H](C)O2)Oc2ccc(cc2Cl)[C@H]1O` [Vancomycin, reference compound], the MIC was 250 µM (≈ 362 µg/mL) in test [1] (Enterococcus, read-out: Minimum inhibitory concentration, VRE 51559); 750 µM (≈ 1090 µg/mL) in test [2] (Enterococcus, read-out: Minimum inhibitory concentration, VRE 51575); 345 µM (≈ 500 µg/mL) in test [3]; 345 µM (≈ 500 µg/mL) in test [4]; 345 µM (≈ 500 µg/mL) in test [5]. The “localization of GFP-FtsI” value in test [6] is recorded as “localization of FtsI at the septum”.

As to `CNC(CC(C)C)C(=O)NC1C(=O)NC(CC(N)=O)C(=O)NC2C(=O)NC3C(=O)NC(C(=O)NC(C(=O)NCCC[N+](C)(C)Cc4ccc(-c5ccccc5)cc4)c4cc(O)cc(O)c4-c4cc3ccc4O)C(O)c3ccc(c(Cl)c3)Oc3cc2cc(c3OC2OC(CO)C(O)C(O)C2OC2CC(C)(N)C(O)C(C)O2)Oc2ccc(cc2Cl)C1O` (stereo not shown) [VanQbiph (4)], the MIC came out at 6.1 µM in test [1] (Enterococcus; read-out: Minimum inhibitory concentration, VRE 51559); 12.3 µM in test [2] (Enterococcus; read-out: Minimum inhibitory concentration, VRE 51575); 7.8 µM in test [3]; 15.7 µM in test [4]; 3.9 µM in test [5].

Turning to `CCCCCCCCCCNC(=O)C[N+](C)(C)CCCNC(=O)C1NC(=O)C2NC(=O)C(NC(=O)C3NC(=O)C(CC(N)=O)NC(=O)C(NC(=O)C(CC(C)C)NC)C(O)c4ccc(c(Cl)c4)Oc4cc3cc(c4OC3OC(CO)C(O)C(O)C3OC3CC(C)(N)C(O)C(C)O3)Oc3ccc(cc3Cl)C2O)c2ccc(O)c(c2)-c2c(O)cc(O)cc21` (stereo not shown) [VanQAmC10 (8)], the “cells with delocalized GFP-FtsI” value in test [6] (10 μM) is given as 60%. For the same compound, in test [6], the “localization of GFP-FtsI” value is “mislocalizes the cell division protein, FtsI”.
